Measured values taken from ChEMBL document CHEMBL3045770, “Design and synthesis of some thieno[2,3-c]pyridazine derivatives of expected anticancer activity” (2013).

How the values were obtained:
Assay type in all cases: functional
[1] = tested on: SF-539; experiment: Cytotoxicity against Homo sapiens (human) SF539 assessed as cell growth at 10 uM after 48 hr by SRB assay relative to control; conditions: SF-539, 48 h, read-out: Activity
[2] = tested on: HT-29; experiment: Cytotoxicity against Homo sapiens (human) HT-29 assessed as cell growth at 10 uM after 48 hr by SRB assay relative to control; conditions: HT-29, 48 h, read-out: Activity
[3] = tested on: HOP-62; experiment: Cytotoxicity against Homo sapiens (human) HOP62 assessed as cell growth at 10 uM after 48 hr by SRB assay relative to control; conditions: HOP-62, 48 h, read-out: Activity
[4] = tested on: RPMI-8226; experiment: Cytotoxicity against Homo sapiens (human) RPMI8226 assessed as cell growth at 10 uM after 48 hr by SRB assay relative to control; conditions: RPMI-8226, 48 h, read-out: Activity
[5] = tested on: SN12C; experiment: Cytotoxicity against Homo sapiens (human) SN12C assessed as cell growth at 10 uM after 48 hr by SRB assay relative to control; conditions: read-out: Activity
[6] = tested on: RXF 393; experiment: Cytotoxicity against Homo sapiens (human) RXF393 assessed as cell growth at 10 uM after 48 hr by SRB assay relative to control; conditions: RXF 393, 48 h, read-out: Activity
[7] = tested on: SK-OV-3; experiment: Cytotoxicity against Homo sapiens (human) SKOV3 assessed as cell growth at 10 uM after 48 hr by SRB assay relative to control; conditions: SK-OV-3, 48 h, read-out: Activity
[8] = tested on: ACHN; experiment: Cytotoxicity against Homo sapiens (human) ACHN assessed as cell growth at 10 uM after 48 hr by SRB assay relative to control; conditions: read-out: Activity
[9] = tested on: OVCAR-3; experiment: Cytotoxicity against Homo sapiens (human) OVCAR3 assessed as cell growth at 10 uM after 48 hr by SRB assay relative to control; conditions: OVCAR-3, 48 h, read-out: Activity
[10] = tested on: UACC-62; experiment: Cytotoxicity against Homo sapiens (human) UACC62 assessed as cell growth at 10 uM after 48 hr by SRB assay relative to control; conditions: UACC-62, 48 h, read-out: Activity
[11] = tested on: SK-MEL-28; experiment: Cytotoxicity against Homo sapiens (human) SK-MEL-28 assessed as cell growth at 10 uM after 48 hr by SRB assay relative to control; conditions: SK-MEL-28, 48 h, read-out: Activity
[12] = tested on: SK-MEL-5; experiment: Cytotoxicity against Homo sapiens (human) SK-MEL-5 assessed as cell growth at 10 uM after 48 hr by SRB assay relative to control; conditions: SK-MEL-5, 48 h, read-out: Activity
[13] = tested on: SK-MEL-2; experiment: Cytotoxicity against Homo sapiens (human) SK-MEL-2 assessed as cell growth at 10 uM after 48 hr by SRB assay relative to control; conditions: SK-MEL-2, 48 h, read-out: Activity
[14] = tested on: MDA-MB-435; experiment: Cytotoxicity against Homo sapiens (human) MDA-MB-435 assessed as cell growth at 10 uM after 48 hr by SRB assay relative to control; conditions: MDA-MB-435, 48 h, read-out: Activity
[15] = tested on: U-251; experiment: Cytotoxicity against Homo sapiens (human) U251 assessed as cell growth at 10 uM after 48 hr by SRB assay relative to control; conditions: U-251, 48 h, read-out: Activity
[16] = tested on: 786-0; experiment: Cytotoxicity against Homo sapiens (human) 786-0 assessed as cell growth at 10 uM after 48 hr by SRB assay relative to control; conditions: 786-0, 48 h, read-out: Activity
[17] = tested on: DU-145; experiment: Cytotoxicity against Homo sapiens (human) DU145 assessed as cell growth at 10 uM after 48 hr by SRB assay relative to control; conditions: DU-145, 48 h, read-out: Activity
[18] = tested on: HCC 2998; experiment: Cytotoxicity against Homo sapiens (human) HCC2998 assessed as cell growth at 10 uM after 48 hr by SRB assay relative to control; conditions: HCC 2998, 48 h, read-out: Activity
[19] = tested on: UO-31; experiment: Cytotoxicity against Homo sapiens (human) UO31 assessed as cell growth at 10 uM after 48 hr by SRB assay relative to control; conditions: UO-31, 48 h, read-out: Activity
[20] = tested on: Malme-3M; experiment: Cytotoxicity against Homo sapiens (human) MALME-3M assessed as cell growth at 10 uM after 48 hr by SRB assay relative to control; conditions: read-out: Activity
[21] = tested on: LOX IMVI; experiment: Cytotoxicity against Homo sapiens (human) LOXIMVI assessed as cell growth at 10 uM after 48 hr by SRB assay relative to control; conditions: read-out: Activity
[22] = tested on: NCI-H322M; experiment: Cytotoxicity against Homo sapiens (human) NCI-H322M assessed as cell growth at 10 uM after 48 hr by SRB assay relative to control; conditions: read-out: Activity

Structure (SMILES)	growth at 10 µM [1] [%]	growth at 10 µM [2] [%]	growth at 10 µM [3] [%]	growth at 10 µM [4] [%]	growth at 10 µM [5] [%]	growth at 10 µM [6] [%]	growth at 10 µM [7] [%]	growth at 10 µM [8] [%]	growth at 10 µM [9] [%]	growth at 10 µM [10] [%]	growth at 10 µM [11] [%]	growth at 10 µM [12] [%]	growth at 10 µM [13] [%]	growth at 10 µM [14] [%]	growth at 10 µM [15] [%]	growth at 10 µM [16] [%]	growth at 10 µM [17] [%]	growth at 10 µM [18] [%]	growth at 10 µM [21] [%]	growth at 10 µM [22] [%]	also measured
Oc1c(-c2n[nH]c(=S)o2)sc2nnc(-c3ccccc3)c(-c3ccccc3)c12	106	114	99.7	102	94	109	96.4	92.4	115	94.3	102	94.7	106	93.6	106	108	112				
CC(=O)Oc1c(C2=NN(C(C)=O)C(c3ccccc3[N+](=O)[O-])O2)sc2nnc(-c3ccccc3)c(-c3ccccc3)c12 (centres undefined)	107	87.5	109	57.4	76.3	93.5	106	86.8	93.4	80	97.1	98.5	101	97.9	80.5	102	104	120	105		growth at 10 µM [19]: 78.9%; growth at 10 µM [20]: 93.2%
CC1=NN(C(=O)c2sc3nnc(-c4ccccc4)c(-c4ccccc4)c3c2O)C(=O)C1	109	119	82.8	59.3	93.8	95.6	90.6	73.2	84.7	77.4	83.5	80.2	110	83.7	71.7	65.9	97.8	59.7	97.6		
CSc1nnc(-c2sc3nnc(-c4ccccc4)c(-c4ccccc4)c3c2O)o1	84.6	107	71.1	67.2	75.7	82.6		83.6	86.8	58.9	85.5	83.5	102	88.4	62.9	88.7	84.7				
Oc1c(-c2nnc(SCc3ccccc3)o2)sc2nnc(-c3ccccc3)c(-c3ccccc3)c12	122	89.8	105	92.9	99.5	90	100	104	126	78.6	98.9	99.7	93.1	99.4	122	105	112	96.5	84	93.6	
CNc1nnc(-c2sc3nnc(-c4ccccc4)c(-c4ccccc4)c3c2O)s1	109	102	115	113	94.2	103	97.7	107	116	97.5	111	104	126	103		108	135	98.4	103	106	growth at 10 µM [20]: 111%
Oc1c(-c2nnc(-c3ccccc3)o2)sc2nnc(-c3ccccc3)c(-c3ccccc3)c12	68.5	103	73.7	64.8	61.4	85.6	83	67	72.4	51.1	85.2	71.2	106	78.4		79.9	106	70.4	65.7	42.5	growth at 10 µM [20]: 83.5%
CCOC(=O)c1c(Nc2ccc(S(N)(=O)=O)cc2)nnc(-c2ccccc2)c1-c1ccccc1	108	118	108	80.9	104	109	108	97.6	118	90.2	107	94.6	123	107	95		120	96.8	99.4		
CCOC(=O)c1c(Nc2ccc(S(=O)(=O)Nc3nccs3)cc2)nnc(-c2ccccc2)c1-c1ccccc1	117	116	117	96.5	94.8	120	106	102	120	92.9	113	97.6	118	119	98.5	109	114				
CC(=O)Oc1c(C2=NN(C(C)=O)C(c3ccc(F)cc3)O2)sc2nnc(-c3ccccc3)c(-c3ccccc3)c12 (centres undefined)	104	102	121	71.3	80.2	88	97.6	72	96.3	57.5	82.1	88.2	99.9	79.6	105	94.7	114	82.8	99	85.7	growth at 10 µM [19]: 83.3%
